In paper PMC11995724, “Antibiotic target discovery by integrated phenotypic and activity-based profiling of electrophilic fragments” (Cell chemical biology, 2025) one finds viability data, which are given here for 47 compounds.

SMILES strings stand for the structures.

The nature of this series: in vitro. Particulars: human, hek293t cells.
As a reminder, the viability is a read-out of living cells in per cent, often relative to untreated cells. As for `CCN1C(=O)CSC1=C(C#N)C(N)=O` [8-M09, 2-cyano-2-(3-ethyl-4-oxo-1,3-thiazolidin-2-ylidene)acetamide], the viability at 48 h, 25 µM worked out at 90.5%.

Take `N#CC(=Cc1cnn(-c2ccc(Cl)cc2)c1)C(=O)NC1CCCC1` [8-M10, 3-[1-(4-chlorophenyl)-1H-pyrazol-4-yl]-2-cyano-N-cyclopentylprop-2-enamide]: the viability at 48 h, 25 µM amounted to 83.3%. Take `CC(=O)Nc1ccc(C=C(C#N)C(=O)Nc2ccccc2Cl)cc1` [8-M11, N-(2-chlorophenyl)-2-cyano-3-(4-acetamidophenyl)prop-2-enamide]: the viability at 48 h, 25 µM was 86.4%. Regarding `N#CC(=Cc1csnn1)C(=O)Nc1ccc(Oc2ccccc2)cc1` [8-M12, 2-cyano-N-(4-phenoxyphenyl)-3-(1,2,3-thiadiazol-4-yl)prop-2-enamide], the viability at 48 h, 25 µM turned out to be 43%.

With `CC(=O)Nc1ccc(C=C(C#N)C(=O)Nc2c(C)cc(C)cc2C)cc1` [8-M13, 2-cyano-3-(4-acetamidophenyl)-N-(2,4,6-trimethylphenyl)prop-2-enamide], the viability at 48 h, 25 µM is 87.7%. Turning to `Cc1ccc(C=C(C#N)C(=O)Nc2cccc3ccccc23)cc1` [8-M14, 2-cyano-3-(4-methylphenyl)-N-(naphthalen-1-yl)prop-2-enamide], the viability at 48 h, 25 µM was found to be 121%. Next, `CC(NC(=O)C(C#N)=Cc1ccc2c(c1)OCCO2)c1ccccc1` (centres unmarked) [8-M15, 2-cyano-3-(2,3-dihydro-1,4-benzodioxin-6-yl)-N-(1-phenylethyl)prop-2-enamide]: 64.3%; `CC(=O)N(c1ccc(C)c(C)c1)c1nc(C=C(C#N)C(N)=O)cs1` [8-M16, 2-cyano-3-{2-[N-(3,4-dimethylphenyl)acetamido]-1,3-thiazol-4-yl}prop-2-enamide]: 85.9%. Next, `CC(C)Oc1ccccc1C=C(C#N)C(=O)Nc1ccccc1` [8-M17, 2-cyano-N-phenyl-3-[2-(propan-2-yloxy)phenyl]prop-2-enamide]: 78.4%.

`COc1ccc(NC(=O)C(C#N)=CC=Cc2ccccc2)cc1Cl` [8-M18, N-(3-chloro-4-methoxyphenyl)-2-cyano-5-phenylpenta-2,4-dienamide]: the viability at 48 h, 25 µM was 75.7%. Next, `COc1cc(C=C(C#N)C(=O)Nc2nccs2)cc(OC)c1O` [8-M19, 2-cyano-3-(4-hydroxy-3,5-dimethoxyphenyl)-N-(1,3-thiazol-2-yl)prop-2-enamide]: 86.3%; `CCc1ccc(NC(=O)C(C#N)=Cc2ccc(F)c(C#N)c2)cc1` [8-M20, 2-cyano-3-(3-cyano-4-fluorophenyl)-N-(4-ethylphenyl)prop-2-enamide]: 23.7%. For `Cc1cccc(C=C(C#N)C(=O)Nc2ccc(C(=O)O)cc2)c1` [8-M21, 4-[2-cyano-3-(3-methylphenyl)prop-2-enamido]benzoic acid], the viability at 48 h, 25 µM was 91.6%. `N#CC(=Cc1ccc(Cl)cc1Cl)C(=O)Nc1ccncc1` [8-M22, 2-cyano-3-(2,4-dichlorophenyl)-N-(pyridin-4-yl)prop-2-enamide]: the viability at 48 h, 25 µM worked out at 67%. Next, `N#CC(=Cc1cccc(O)c1)C(=O)NCCc1ccccc1` [8-N03, 2-cyano-3-(3-hydroxyphenyl)-N-(2-phenylethyl)prop-2-enamide]: 101%.

Consider `COc1ccc(NC(=O)C(C#N)=Cc2cccc(Cl)c2Cl)cc1` [8-N04, 2-cyano-3-(2,3-dichlorophenyl)-N-(4-methoxyphenyl)prop-2-enamide], for which the viability at 48 h, 25 µM came to 74.8%. With `Cc1ccccc1NC(=O)C(C#N)=Cc1ccccc1Cl` [8-N05, 3-(2-chlorophenyl)-2-cyano-N-(2-methylphenyl)prop-2-enamide], the viability at 48 h, 25 µM stood at 47.9%.

Regarding `COc1cc(C=C(C#N)C(=O)Nc2ccc3c(c2)OCCO3)ccc1O` [8-N06, 2-cyano-N-(2,3-dihydro-1,4-benzodioxin-6-yl)-3-(4-hydroxy-3-methoxyphenyl)prop-2-enamide], the viability at 48 h, 25 µM was 91.5%. Next, `CCOc1ccc(NC(=O)C(C#N)=Cc2ccc(F)cc2)cc1` [8-N07, 2-cyano-N-(4-ethoxyphenyl)-3-(4-fluorophenyl)prop-2-enamide]: 102%; `N#CC(=CC1=Cc2ccccc2OC1)C(=O)Nc1ccc(C(=O)O)cc1` [8-N08, 4-[3-(2H-chromen-3-yl)-2-cyanoprop-2-enamido]benzoic acid]: 97.6%. The result for `CNc1ccc(C=C(C#N)C(=O)Nc2ccccc2F)cc1[N+](=O)[O-]` [8-N09, 2-cyano-N-(2-fluorophenyl)-3-[4-(methylamino)-3-nitrophenyl]prop-2-enamide] reads 110%; that for `CC(NC(=O)C(C#N)=Cc1cnn(C)c1)c1ccccc1` (centres unmarked) [8-N10, 2-cyano-3-(1-methyl-1H-pyrazol-4-yl)-N-(1-phenylethyl)prop-2-enamide], 97%; that for `CSc1ccc(C=C(C#N)C(=O)Nc2cccc(Cl)c2C)cc1` [8-N11, N-(3-chloro-2-methylphenyl)-2-cyano-3-[4-(methylsulfanyl)phenyl]prop-2-enamide], 103%.

With `N#CC(=Cc1c2ccccc2c(Cl)c2ccccc12)C(N)=O` [8-N12, 3-(10-chloroanthracen-9-yl)-2-cyanoprop-2-enamide], the viability at 48 h, 25 µM turned out to be 69.3%. The result for `CCCCNC(=O)C(C#N)=Cc1cccc2ccccc12` [8-N13, N-butyl-2-cyano-3-(naphthalen-1-yl)prop-2-enamide] reads 112%. Regarding `COc1ccc(O)c(C=C(C#N)C(=O)Nc2cccc3ccccc23)c1` [8-N14, 2-cyano-3-(2-hydroxy-5-methoxyphenyl)-N-(naphthalen-1-yl)prop-2-enamide], the viability at 48 h, 25 µM was found to be 117%. Turning to `N#CC(=Cc1cccc2ccccc12)C(=O)NCc1ccco1` [8-N15, 2-cyano-N-[(furan-2-yl)methyl]-3-(naphthalen-1-yl)prop-2-enamide], the viability at 48 h, 25 µM stood at 91%. For `CC(=O)Nc1ccc(C=C(C#N)C(=O)NC2CCCCC2)cc1` [8-N16, 2-cyano-N-cyclohexyl-3-(4-acetamidophenyl)prop-2-enamide], the viability at 48 h, 25 µM was 95.6%. `N#CC(=Cc1ccncc1)C(=O)Nc1ccccc1Cl` [8-N17, N-(2-chlorophenyl)-2-cyano-3-(pyridin-4-yl)prop-2-enamide]: the viability at 48 h, 25 µM came to 112%. The result for `N#CC(=Cc1cn(-c2ccccc2)nc1-c1ccccc1Cl)C(N)=O` [8-N18, 3-[3-(2-chlorophenyl)-1-phenyl-1H-pyrazol-4-yl]-2-cyanoprop-2-enamide] reads 91.5%; that for `CCCn1c(C)cc(C=C(C#N)C(=O)Nc2cccc(C#N)c2)c1C` [8-N19, 2-cyano-N-(3-cyanophenyl)-3-(2,5-dimethyl-1-propyl-1H-pyrrol-3-yl)prop-2-enamide], 107%; that for `CC(NC(=O)C(C#N)=Cc1ccccc1)C12CC3CC(CC(C3)C1)C2` (centres unmarked) [8-N20, N-[1-(adamantan-1-yl)ethyl]-2-cyano-3-phenylprop-2-enamide], 13.9%. Consider `N#CC(=Cc1ccco1)C(=O)NC1CC1` [8-N21, 2-cyano-N-cyclopropyl-3-(furan-2-yl)prop-2-enamide], for which the viability at 48 h, 25 µM was found to be 112%. Consider `COc1cc(C=C(C#N)C(=O)Nc2cccc(C)c2)c2c(c1)CC(C)O2` (centres unmarked) [8-N22, 2-cyano-3-(5-methoxy-2-methyl-2,3-dihydro-1-benzofuran-7-yl)-N-(3-methylphenyl)prop-2-enamide], for which the viability at 48 h, 25 µM amounted to 83.2%. As to `N#CC(=Cc1ccc(-c2ccc(Cl)cc2)o1)C(=O)Nc1ccccc1` [8-O03, 3-[5-(4-chlorophenyl)furan-2-yl]-2-cyano-N-phenylprop-2-enamide], the viability at 48 h, 25 µM was 58.3%. Next, `N#CC(=Cc1ccc(N2CCCCC2)cc1)C(=O)NC1CC1` [8-O04, 2-cyano-N-cyclopropyl-3-[4-(piperidin-1-yl)phenyl]prop-2-enamide]: 82.3%.

On to `N#CC(=Cc1ccc(O)c([N+](=O)[O-])c1)C(=O)NCc1ccccc1` [8-O05, N-benzyl-2-cyano-3-(4-hydroxy-3-nitrophenyl)prop-2-enamide], for which the viability at 48 h, 25 µM turned out to be 98.7%.

In the case of `CC(NC(=O)C(C#N)=Cc1cc(F)ccc1F)c1ccccc1` (centres unmarked) [8-O06, 2-cyano-3-(2,5-difluorophenyl)-N-(1-phenylethyl)prop-2-enamide], the viability at 48 h, 25 µM turned out to be 25.3%. With `C=CCNC(=O)C(C#N)=Cc1ccc(C#N)cc1` [8-O07, 2-cyano-3-(4-cyanophenyl)-N-(prop-2-en-1-yl)prop-2-enamide], the viability at 48 h, 25 µM amounted to 85.6%. `N#CC(=Cc1cc(F)ccc1F)C(=O)Nc1ccc(Cl)cc1Cl` [8-O08, 2-cyano-N-(2,4-dichlorophenyl)-3-(2,5-difluorophenyl)prop-2-enamide]: the viability at 48 h, 25 µM turned out to be 68.1%. As to `CCNC(=O)C(C#N)=Cc1ccc(O)c(OCC)c1` [8-O09, 2-cyano-3-(3-ethoxy-4-hydroxyphenyl)-N-ethylprop-2-enamide], the viability at 48 h, 25 µM was found to be 98.9%. On to `CC(C)Oc1ccc(C=C(C#N)C(=O)NC2CCCC2)cc1` [8-O10, 2-cyano-N-cyclopentyl-3-[4-(propan-2-yloxy)phenyl]prop-2-enamide], for which the viability at 48 h, 25 µM turned out to be 57.5%. Next, `N#CC(=Cc1ccc([N+](=O)[O-])cc1)C(=O)Nc1ccc(Cl)cc1` [8-O11, N-(4-chlorophenyl)-2-cyano-3-(4-nitrophenyl)prop-2-enamide]: 82.6%; `CC1CN(C(=O)C(C#N)=Cc2c(Cl)cccc2Cl)CC(C)O1` (centres unmarked) [8-O12, 3-(2,6-dichlorophenyl)-2-(2,6-dimethylmorpholine-4-carbonyl)prop-2-enenitrile]: 60.2%.

Regarding `COCCNC(=O)C(C#N)=Cc1c(Cl)cccc1Cl` [8-O13, 2-cyano-3-(2,6-dichlorophenyl)-N-(2-methoxyethyl)prop-2-enamide], the viability at 48 h, 25 µM came out at 55.9%. With `COc1ccc(NC(=O)C(C#N)=Cc2cccs2)cc1` [8-O14, 2-cyano-N-(4-methoxyphenyl)-3-(thiophen-2-yl)prop-2-enamide], the viability at 48 h, 25 µM came to 75.7%. The result for `N#CC(=Cc1c(F)c(F)c(F)c(F)c1F)C(=O)NC1CCCCC1` [8-O15, 2-cyano-N-cyclohexyl-3-(2,3,4,5,6-pentafluorophenyl)prop-2-enamide] reads 0.544%.
